One data set concerns glioma cells. Description: Glioma cell assays combined (scratch and sphere, several cell lines). It counts as cell-based, human. The conditions noted are these: 100 μM; for Effect on glioma cells, overall: multiple assays and cell lines; for Effect on glioma cell migration: scratch assays. Here is the method: FIG. 2 illustrates a schematic of a functional screening approach. Seventy-four PTPμ wedge-targeted compounds and 2 blinded DMSO samples were received from Atomwise and screened at 100 μM in scratch wound healing assays using two glioma cell lines (LN229 and U87). Selected active and control compounds were taken into secondary assays (Gli36 scratch and LN229 and Gli36 sphere formation and growth assays). Inhibitors selected as being active in primary and secondary screens were tested for effects on the survival of LN229 and Sf9 cells, and selected glioma-cell inhibitors and activators were screened for effects on Sf9-PTPμ aggregation, a highly specific test for PTPμ function.
(§1) Cells were seeded at a density of 2.7×10^4 cells per well into the internal wells of Incuyte1 Imagelock 96-well plates (Essen BioScience Inc., Ann Arbor, MI) and cultured overnight to form monolayers. Monolayers were wounded with an IncuCyte1 96-well Woundmaker Tool per the manufacturer's instructions. The outer wells were filled with PBS to buffer edge effects, and then the wounded monolayers were cultured in 100 μl of fresh media with compounds or DMSO (2×replicates at 100 μM or 1%, respectively) at 37 °C and 5% CO2. Images were captured every 4 hrs. using an Incucyte live cell imaging system equipped with the Scratch Wound Module. Scratch wound widths were calculated, per the manufacturer's instructions, at TO and at endpoint (typically T12 for LN229 and U87 cells and T8 for Gli36), which was taken as the last timepoint before wound closure. The cell migration distance was calculated from scratch widths [(T0Width−TendpointWidth)/2] and normalized to the average distance migrated by the DMSO controls. Values are presented as average percentages±standard errors of the means (s.e.m.). The majority of compounds were screened with an n of two, but the n for priority hits ranges from 2-6.
(§2) Cells were seeded at a density of 7500 cells per well into the internal wells of 96-well plates coated with 0.75% (wt/vol) PVA as previously described. Compounds were added (2×replicates per treatment) at the indicated final concentrations, and control wells were treated with matching concentrations of DMSO. The external wells of the plates were filled with PBS to buffer against edge effects, and the cells were incubated at 37 °C and 5% CO2 for 7 days. A Leica CTR6500 microscope fitted with an automated stage was used to capture brightfield images on day 1 and day 7, and sphere footprint areas were measured using Image J (v1.52a http://imagej.nih.gov/ij) as previously described. To quantify the effects of the compounds on day 1, the footprint areas of the treated wells were normalized to the average area of the matched DMSO control wells. To quantify the effects of the compounds on sphere growth, the change in the sphere footprint areas was calculated ([…]) and then normalized to the average size change of the matched DMSO samples. All values are presented as average percentages±s.e.m.

In a further data set the test system is LN229 cells. Description: LN229 scratch wound healing assay. It counts as cell-based, human. Particulars: for activity at 100 µM: Homo sapiens, LN-229, normalized to DMSO controls, read-out: LN229 scratch wound closure relative to DMSO controls.
From the text: FIGS. 3(A-D) illustrate a histogram and images of the LN229 scratch wound assays. A. Histogram showing the effects of all soluble wedge-targeted compounds on LN229 scratch wound closure. Cell movement into the scratches was quantified from scratch wound widths at the start and end of the assay and normalized to the average movement of cells in the unblinded DMSO control samples. Data is presented as average percentages±standard error of the means (s.e.m.), and compound bar codes are shown on the x-axis. The majority of compounds were screened with an n=2. Some priority compounds were screened with 3-6 replicates. Representative endpoint images of samples treated with DMSO (B) and two priority inhibitors (C and D) are shown. The relative migration distances for each example are indicated.
as §1
Scratch assays measure the ability of cells to migrate into a wound and close it creating a monolayer.

In another data set the test system is Gli36 cells. Description: Gli36 glioma sphere formation and growth assay. Particulars: for Effect on Gli36 sphere formation: day 1; for Effect on Gli36 sphere formation / Effect on Gli36 sphere growth: in words. The class given is cell-based, human. As to the method: FIGS. 6(A-E) illustrate a histogram and images showing the results of the Gli36 sphere formation and growth assays. Selected inhibitors, activators, and control compounds identified in LN229 and/or U87 scratch wound closure assays were retested at 100 μM in a secondary assay for glioma cell (Gli36) sphere formation and growth. A. Histogram showing the effects of the indicated compounds on Day 1 sphere footprint areas. Footprint areas were measured and normalized to the average footprint area of the unblinded DMSO-treated controls. On day 1, a larger footprint area indicates inhibition of aggregation. B. Histogram showing the effects of the indicated compounds on sphere growth. Changes in sphere footprint areas were calculated and normalized to the average size change of the unblinded vehicle-treated controls. On day 7, a smaller value indicates reduced growth. […] Data is presented as percentages±s.e.m. of 2-4 replicates. Representative images of samples treated with DMSO (C) and two priority inhibitors (D and E) are shown. Relative day 1 footprint areas and day 7 growth measurements are indicated for each example.
as §2

In the next data set the test system is parental Sf9 cells. Briefly: Helix Blue staining of parental Sf9 cells (cell survival). The conditions noted are these: 100 μM, 24 h, cells lack PTPμ. The class given is cell-based, insect. As to the method:
FIG. 17 illustrates images showing the effects of prioritized inhibitors on cell survival. LN229 cells were plated onto non-adherent surfaces and cultured in the presence of the indicated compounds (100 μM). On day 1, spheres were stained with Helix Blue to detect dying cells. Parental Sf9 cells (which lack PTPμ) plated onto tissue culture plastic were also grown in the presence of the indicated compounds and, on day 1, stained with Helix Blue. Three compounds appeared to cause a qualitative increase in staining in LN229 spheres. No compound was toxic to Sf9 cells.
LN229 cells, plated onto non-adherent surfaces as described above, and parental Sf9 cells (without PTPμ), seeded into 96-well flat bottom tissue culture plates, were treated for 24 h with the indicated compounds (100 μM). The cells and spheres were then treated with 5.5 μM Helix Blue (Biolegend, San Diego, CA) and imaged at 10× on a Leica CTR6500 fluorescence microscope.
The seven penetrant inhibitors were tested to see if they affected the survival of LN229 spheres and parental Sf9 cells (which lack PTPμ) (FIG. 17).

Entries after “also recorded” stand apart in the source; their conditions may differ.

Consider `O=C(NCc1nc(-c2ccncc2)no1)c1ccc(Cl)c(S(=O)(=O)NCc2ccccc2)c1` [Compound 247678791], for which, in the data set on glioma cells, the “Effect on glioma cells, overall” value was “highly penetrant inhibitors; also recorded: able to inhibit glioma cells” and the “Effect on glioma cell migration” value is “able to inhibit glioma cell migration”. Moreover, the “Effect on LN229 cell morphology in scratch assay” value (“Effect on LN229 cell morphology” below) in the data set with LN229 cells (100 μM) is reported as “subtle effects on the morphology of LN229 cells”. Also, the activity at 100 µM in the data set on LN229 cells was less than 60%. Also, in the data set with Gli36 cells (100 μM), the “Effect on Gli36 sphere formation” value is recorded as “slowed condensation of Gli36 cells”. Also, the “Effect on Gli36 sphere growth” value in the data set with Gli36 cells (100 μM, day 7) was “grew more slowly than controls”.

In the case of `CCN(C(=O)CN1C(=O)NC(C)(CCC(C)C)C1=O)c1cccc2ccccc12` (stereo not drawn) [Compound 247677616], in the data set on parental Sf9 cells, the “Effect on parental Sf9 cell survival” value is listed as “did not affect parental Sf9 cells”. Also, the “Effect on glioma cells, overall” value in the data set with glioma cells is reported as “highly penetrant inhibitors in glioma cell assays”. In the data set on LN229 cells (100 μM), the “Effect on LN229 cell morphology” value was “rounding”. Also, the activity at 100 µM was less than 60% in the data set on LN229 cells and 0% in the data set on Gli36 cells (Homo sapiens, GLI36, 168 h, read-out: Gli36 sphere growth (indicated value; sample fell apart on day 1), growth could not be calculated, indicated as '0' growth). Moreover, the “Effect on Gli36 sphere formation” value with Gli36 cells (100 μM) was “completely blocked Gli36 sphere formation; also recorded: fell apart on day 1”.

`COc1cc(C)ccc1OCC(=O)Nc1nc(-c2c[nH]c(C(N)=O)c2)cs1` [Compound 247678835]: the “Effect on parental Sf9 cell survival” value in the data set with parental Sf9 cells is listed as “did not affect parental Sf9 cells”. In addition, in the data set on glioma cells, the “Effect on glioma cells, overall” value is on record as “highly penetrant inhibitors; also recorded: able to inhibit glioma cells” and the “Effect on glioma cell migration” value is reported as “able to inhibit glioma cell migration”. For the same molecule, the “Effect on LN229 cell morphology” value in the data set with LN229 cells (100 μM) is “rounded with no ruffles”. Also, the “Effect on LN229 scratch wound closure / migration” value with LN229 cells (100 μM, in words) is recorded as “completely blocked the movement of cells into the scratch; also recorded: strongest inhibitor identified in the initial screen of LN229 migration”. Besides, the activity at 100 µM in the data set with LN229 cells is less than 60%. Besides, the “Effect on Gli36 sphere formation” value with Gli36 cells (100 μM) was “slowed aggregation of Gli36 cells”. Also, in the data set on Gli36 cells (100 μM, day 7), the Gli36 sphere appearance entry is given as “more optically translucent than control spheres on Day 7” and the “Effect on Gli36 sphere growth” value is listed as “grew poorly”.

Source of the values: patent US20260355168A1, “COMPOSITIONS AND METHODS FOR TREATING AND DETECTING CANCER” (CASE WESTERN RESERVE UNIVERSITY, priority 2022, published 2026).
